Measurements reported in patent publication US6387906B1, “2,4,4-trisubstituted-1,3-dioxolane antifungals” (priority 1997, dated 2002).
Counter-ions that a name gives are not always drawn.

How the values were obtained:
Trichophyton rubrum = assay: Measurement of antifungal activity in vitro (lowest active dose) vs. Trichophyton rubrum; type: cell-based; conditions: lowest concentration inhibiting growth below 35% of control growth; CYG broth, 30° C. for 5-7 days, turbidimetry
Method: (§1) Test compounds were dissolved at a concentration of 10^−2 M in dimethyl sulfoxide (DMSO) and diluted into CYG broth (Odds, F. C. Antimicrobial Agents and Chemotherapy 1992; 36: 1727-1737) to give a final concentration of 25 μM and, in most tests, 5 μM. For some compounds the tests were done at 100, 10, 1.0 and 0.1 μM. Cultures were inoculated with Candida.kefyr to an initial concentration of 10^4/ml and with Trichophyton rubrum to an equivalent concentration determined by turbidimetry. Cultures were incubated in the wells of microdilution plates at 37° C. for 48 h (C. kefyr) and at 30° C. for 5-7 days (T. rubrum). Growth in wells containing test compounds was estimated turbidimetrically as a percentage of growth in compound-free controls and the lowest concentration of compound that inhibited the growth of an isolate below 35% of control growth was recorded as the lowest active dose (LAD).

Candida kefyr = assay: Measurement of antifungal activity in vitro (lowest active dose) vs. Candida kefyr; type: cell-based; conditions: lowest concentration inhibiting growth below 35% of control growth; CYG broth, 37° C. for 48 h, turbidimetry
Method: as §1

SMILES	LAD (μM) vs. T. rubrum (Trichophyton rubrum)	LAD (μM) vs. C. keyr (Candida kefyr)	melting point
CCC(C)N1CCN(c2ccc(N3CCN(c4ccc(OC[C@@H]5OC[C@@](Cn6ccnc6)(c6ccc(F)cc6F)O5)cc4)CC3)cc2)C1=O (mixture of isomers) [Compound 35]	≦5 μM	≦25 μM	–
CCC1C(=O)N(c2ccc(N3CCN(c4ccc(OC[C@@H]5OC[C@@](Cn6cncn6)(c6ccc(F)cc6F)O5)cc4)CC3)cc2)C(=O)N1CC (mixture of isomers) [Compound 20]	>25 µM	≦5 μM	–
CCC(CC)N1CCN(c2ccc(N3CCN(c4ccc(OC[C@@H]5OC[C@@](Cn6ccnc6)(c6ccc(F)cc6)O5)cc4)CC3)cc2)C1=O (racemic) [Compound 44]	≦5 μM	≦5 μM	–
CN1CCN(c2ccc(N3CCN(c4ccc(OC[C@@H]5OC[C@@](Cn6ccnc6)(c6ccc(F)cc6)O5)cc4)CC3)cc2)C1=O (racemic) [Compound 42]	≦5 μM	≦5 μM	–
CC(C)NC(=O)Nc1ccc(N2CCN(c3ccc(OCC4OCC(Cn5cncn5)(c5ccc(F)cc5F)O4)cc3)CC2)cc1 (stereo not drawn) [Compound 53, (2S-cis)-N-[4-[4-[4-[[4-(2,4-difluorophenyl)-4-(1H-1,2,4-triazol-1-ylmetyl)-1,3-dioxolan-2-yl]-methoxy]phenyl]-1-piperazinyl]phenyl]-N′-(1-methylethyl)urea]	–	–	196 °C
CCCCN1CCN(c2ccc(N3CCN(c4ccc(OC[C@@H]5OC[C@@](Cn6ccnc6)(c6ccc(F)cc6)O5)cc4)CC3)cc2)C1=O (racemic) [Compound 26]	≦5 μM	≦25 μM	–
CC(C)N1CCN(c2ccc(N3CCN(c4ccc(OC[C@@H]5OC[C@@](Cn6cncn6)(c6ccc(F)cc6)O5)cc4)CC3)cc2)C1=O (racemic) [Compound 40]	≦5 μM	≦25 μM	–
CCN1C(=O)N(c2ccc(N3CCN(c4ccc(OC[C@@H]5OC[C@@](Cn6cncn6)(c6ccc(F)cc6F)O5)cc4)CC3)cc2)C(C)(C)C1=O (racemic) [Compound 19]	≦25 μM	≦5 μM	–
CCCN1CCN(c2ccc(N3CCN(c4ccc(OC[C@@H]5OC[C@@](Cn6ccnc6)(c6ccc(F)cc6)O5)cc4)CC3)cc2)C1=O (racemic) [Compound 25]	≦5 μM	≦5 μM	–
CCN1CCN(c2ccc(N3CCN(c4ccc(OC[C@@H]5OC[C@@](Cn6ccnc6)(c6ccc(Cl)cc6)O5)cc4)CC3)cc2)C1=O (racemic) [Compound 27]	≦5 μM	≦5 μM	–
CCC(C)N1CCN(c2ccc(N3CCN(c4ccc(OC[C@@H]5OC[C@@](Cn6cncn6)(c6ccc(F)cc6F)O5)cc4)CC3)cc2)C1=O (relative stereo) [Compound 21, cis-1-[4-[4-[4-[[4-(2,4-difluorophenyl)-4-(1H-1,2,4-triazol-1-ylmethyl)-1,3-dioxolan-2-yl]methoxy]phenyl]-1-piperazinyl]phenyl]-3-(1-methylpropyl)-2-imidazolidinone]	≦0.1 μM	≦0.1 μM	–
CCCN1C(=O)N(c2ccc(N3CCN(c4ccc(OC[C@@H]5OC[C@@](Cn6cncn6)(c6ccc(Cl)cc6)O5)cc4)CC3)cc2)CC1(C)C (racemic) [Compound 9]	≦25 μM	≦25 μM	–
CC(C)N1CCN(c2ccc(N3CCN(c4ccc(OC[C@@H]5OC[C@@](Cn6ccnc6)(c6ccc(F)cc6F)O5)cc4)CC3)cc2)C1=O (racemic) [Compound 34]	≦5 μM	≦5 μM	–
CCN1CCN(c2ccc(N3CCN(c4ccc(OC[C@@H]5OC[C@@](Cn6ccnc6)(c6ccc(F)cc6)O5)cc4)CC3)cc2)C1=O (racemic) [Compound 24]	≦5 μM	≦25 μM	–
CCCN1C(=O)N(c2ccc(N3CCN(c4ccc(OC[C@@H]5OC[C@@](Cn6ccnc6)(c6ccc(F)cc6)O5)cc4)CC3)cc2)CC1(C)C (racemic) [Compound 12]	≦5 μM	≦25 μM	–
CC(C)N(C)C(=O)Nc1ccc(N2CCN(c3ccc(OCC4OCC(Cn5cncn5)(c5ccc(F)cc5F)O4)cc3)CC2)cc1 (stereo not drawn) (as salt: HCl) [Compound 54, (B-cis)-N-[4-[4-[4-[[4-(2,4-difluorophenyl)-4-(1H-1,2,4-triazol-1-yl-methyl)-1,3-dioxolan-2-yl]methoxy]phenyl]-1-piperazinyl]phenyl]-N′-methyl-N′-(1-methylethyl)urea]	–	–	186 °C

SMILES	LAD (μM) vs. T. rubrum (Trichophyton rubrum)	LAD (μM) vs. C. keyr (Candida kefyr)	melting point
CC(C)N1CCN(c2ccc(N3CCN(c4ccc(OC[C@@H]5OC[C@@](Cn6cncn6)(c6ccc(F)cc6F)O5)cc4)CC3)cc2)C1=O [Compound 50]	1 µM	1 µM	–
CCN1C(=O)N(c2ccc(N3CCN(c4ccc(OC[C@@H]5OC[C@@](Cn6cncn6)(c6ccc(F)cc6F)O5)cc4)CC3)cc2)C(=O)C(C)(C)C1=O (relative stereo) [Compound 48, (2R-cis)-1-ethyl-3-[4-[4-[4-[[4-(2,4-diflurorophenyl)-4-(1H-1,2,4-triazol-1-ylmethyl)-1,3-dioxolan-2-yl]methoxy]phenyl]-1-piperazinyl]phenyl]-5,5-dimethyl-2,4,6(1H,3H,5H)-pyrimidinetrione]	>100 µM	10 µM	–
CCCn1c(=O)n(CC)c(=O)n(-c2ccc(N3CCN(c4ccc(OC[C@H]5OC[C@](Cn6cncn6)(c6ccc(F)cc6F)O5)cc4)CC3)cc2)c1=O (relative stereo) [Compound 47, (2S-cis)-1-ethyl-3-[4-[4-[4-[[4-(2,4-difluorophenyl)-4-(1H-1,2,4-triazol-1-ylmethyl)-1,3-dioxolan-2-yl]methoxy]-phenyl]-1-piperazinyl]phenyl]-5-propyl-1,3,5-triazine-2,4,6(1H,3H,5H)-trione]	1 µM	>100 µM	–
CC(C)N1CCN(c2ccc(N3CCN(c4ccc(OC[C@@H]5OC[C@@](Cn6ccnc6)(c6ccc(Cl)cc6)O5)cc4)CC3)cc2)C1=O (racemic) [Compound 28]	≦5 μM	≦25 μM	–
CCCN1CCN(c2ccc(N3CCN(c4ccc(OCC5OCC(Cn6ccnc6)(c6ccc(Cl)cc6)O5)cc4)CC3)cc2)C1=O (racemic) [Compound 4]	≦5 μM	≦5 μM	–
CC(C)N1CCN(c2ccc(N3CCN(c4ccc(OC[C@@H]5OC[C@@](Cn6ccnc6)(c6ccc(F)cc6)O5)cc4)CC3)cc2)C1=O (racemic) [Compound 23]	≦5 μM	≦5 μM	–
CCN1C(=O)N(c2ccc(N3CCN(c4ccc(OC[C@H]5OC[C@](Cn6cncn6)(c6ccc(F)cc6F)O5)cc4)CC3)cc2)C(=O)C(C)(C)C1=O [Compound 49]	1 µM	1 µM	–
CC(C)N1CCN(c2ccc(N3CCN(c4ccc(OC[C@@H]5OC[C@@](Cn6cncn6)(c6ccc(F)cc6F)O5)cc4)CC3)cc2)C1=O (stereo in doubt) [Compound 41]	≦0.1 μM	≦0.1 μM	–
CCCN1C(=O)N(c2ccc(N3CCN(c4ccc(OC[C@@H]5OC[C@@](Cn6cncn6)(c6ccc(F)cc6)O5)cc4)CC3)cc2)CC1(C)C (racemic) [Compound 13]	≦5 μM	≦5 μM	–
CCCn1c(=O)n(CC)c(=O)n(-c2ccc(N3CCN(c4ccc(OC[C@@H]5OC[C@@](Cn6cncn6)(c6ccc(F)cc6F)O5)cc4)CC3)cc2)c1=O [Compound 46]	100 µM	1 µM	–
CC(C)N1CCN(c2ccc(N3CCN(c4ccc(OC[C@H]5OC[C@](Cn6cncn6)(c6ccc(F)cc6F)O5)cc4)CC3)cc2)C1=O.Cl (stereo in doubt) [Compound 52, (2S-cis)-1-[4-[4-[4-[[4-(2,4-difluorophenyl)-4-(1H-1,2,4-triazol-1-ylmethyl)-1,3-dioxolan-2-yl]methoxy]phenyl]-1-piperazinyl]phenyl]-3-(1-methylethyl)-2-imidazolidinone hydrochloride (1:1)]	≦0.1 μM	≦0.1 μM	–
CCCCN1CCN(c2ccc(N3CCN(c4ccc(OC[C@@H]5OC[C@@](Cn6ccnc6)(c6ccc(Cl)cc6)O5)cc4)CC3)cc2)C1=O (racemic) [Compound 29]	≦5 μM	≦25 μM	–
CCN1CCN(c2ccc(N3CCN(c4ccc(OC[C@@H]5OC[C@@](Cn6ccnc6)(c6ccc(F)cc6F)O5)cc4)CC3)cc2)C1=O (racemic) [Compound 32]	≦5 μM	≦25 μM	–
CCCN1CCN(c2ccc(N3CCN(c4ccc(OC[C@@H]5OC[C@@](Cn6ccnc6)(c6ccc(F)cc6F)O5)cc4)CC3)cc2)C1=O (racemic) [Compound 30]	≦5 μM	≦5 μM	–
CCCN1C(=O)N(c2ccc(N3CCN(c4ccc(OCC5OCC(Cn6ccnc6)(c6ccc(Cl)cc6)O5)cc4)CC3)cc2)CC1(C)C (racemic) [Compound 5]	≦5 μM	≦25 μM	–
